# Assay results taken from patent US11464750B2, “Anticancer agent and use thereof” (priority 2017, dated 2022).
# Assays:
# Assay type in all cases: cell-based, human
# [1] = tested on: BALL-1 cells; test: MTT assay, BALL-1 cells; details: 0.01, 0.05, 0.1, 0.5, and 1 μM, 48 hours
# Description: BALL-1 cells of a cell line derived from […], TKG0210 cells of a human myeloid leukemia cell line, and TKG0377 cells of a human T cell acute leukemia cell line were seeded in 96-well plates at 2.5×10^4 cells/well/100 μL, and cultured for 48 hours in the presence of 3EZ,20Ac-ingenol at final concentrations of 0 (control), 0.5, 1, 5, and 10 μM. Subsequently, cell proliferation was examined by MTT assay using a Cell Proliferation Kit 1 (Roche Applied Science).
# BALL-1 cells were exposed to 3EZ,20Ac-ingenol, 3EE,20Ac-ingenol, 20Ac-ingenol, and ingenol at concentrations of 0.01, 0.05, 0.1, 0.5, and 1 μM for 48 hours. Thereafter, cell proliferation was examined by MTT assay. Cells that were not exposed to the chemical were used as controls. The chemical formulas of 3EZ,20Ac-ingenol, 3EE,20Ac-ingenol, and 20Ac-ingenol are as described above. The chemical formula of ingenol is shown in the following Formula (7).
# [2] = tested on: JeKo-1 cells; test: MTT assay, JeKo-1 cells; details: 48 hours
# Description: (§1) JeKo-1 cells of a cell line derived from a human mantle cell lymphoma were seeded in a 96-well plate at 1×10^4 cells/well/100 μL. In addition, Panc-1 cells of a cell line derived from a human pancreatic cancer were seeded in a 96-well plate at 3×10^3 cells/well/100 μL.
# (§2) Subsequently, 3EZ,20Ac-ingenol at final concentrations of 0 (control), 0.1, 0.5, 1, 5, and 10 μM was added the wells of the respective cells, and culturing was performed for 48 hours. Subsequently, cell proliferation was examined by MTT assay using a Cell Proliferation Kit I (Roche Applied Science).
# (§3) First, JeKo-1 cells were seeded in a 96-well plate at 1×10^4 cells/well/100 μL. Subsequently, irinotecan at a final concentration of 0 (control), 0.5, 1, 5, 10, 20, and 30 μM was added to the wells of the cells and culturing was performed for 48 hours. In addition, Panc-1 cells were seeded in a 96-well plate at 3×10^3 cells/well/100 μL. Subsequently, irinotecan at a final concentration of 0 (control), 0.5, 1, 5, 10, 20, 30, and 50 μM was added to the wells of the cells and culturing was performed for 48 hours. Subsequently, cell proliferation was examined by MTT assay using a Cell Proliferation Kit I (Roche Applied Science).
# [3] = tested on: Panc-1 cells; test: MTT assay, Panc-1 cells; details: irinotecan, 48 hours
# Description: as §1, §2, §3
Compound,inhibition of proliferation of the BALL-1 cells [1],proliferation inhibition of JeKo-1 cells ([2]; 1 to 20 μM of irinotecan),"IC50 ([2]; Homo sapiens, JeKo-1, MTT assay, read-out: IC50 with respect to the JeKo-1 cells)",resistance of Panc-1 cells [3]
CC(=O)OCC1=C[C@@H]2C(=O)C3(C=C(C)[C@H](O)[C@@]3(O)[C@@H]1O)[C@H](C)C[C@@H]1[C@H]2C1(C)C [20Ac-ingenol],inhibition of proliferation of the BALL-1 cells was observed,–,–,–
"CCc1c2c(nc3ccc(OC(=O)N4CCC(N5CCCCC5)CC4)cc13)-c1cc3c(c(=O)n1C2)COC(=O)[C@]3(O)CC [irinotecan, reference compound]",–,grown cells were almost eliminated,5 µM,showed resistance
"CCCCC/C=C/C=C/C(=O)O[C@H]1C(C)=C[C@]23C(=O)[C@@H](C=C(COC(C)=O)[C@@H](O)[C@]12O)[C@H]1[C@@H](C[C@H]3C)C1(C)C [3EE,20Ac-ingenol]",a significant level of inhibition of proliferation,–,–,–
"CC1=C[C@]23C(=O)[C@@H](C=C(CO)[C@@H](O)[C@]2(O)[C@H]1O)[C@H]1[C@@H](C[C@H]3C)C1(C)C [ingenol, reference compound]",little effect on proliferation,–,–,–
